Values quoted from earlier work as cited in patent publication US8404246B2, “Nutritional supplement to improve supplementary target protein fraction (TPF) delivery, intracellular absorption and utilization” (priority 2010, dated 2013).
Read-outs that look alike come from different tables or passages of the source. One block for each molecule: values may come before it.

Experiments:
[1] = exogenous form

- ingested glycoprotein detectable in serum after dosing (in vivo): 6%
Molecule: Cl.N[C@H]1C(O)O[C@H](CO)[C@@H](O)[C@@H]1O (stereo partly drawn) [glucosamine HCl]

- solubility in water [1]: readily soluble
Molecule: CC(=O)N[C@H]1C(O)O[C@H](CO)[C@@H](O)[C@@H]1O (stereo partly drawn) [N-acetyl D-glucosamine, N-Acetyl D-Glucosamine]

- ingested glycoprotein detectable in serum after dosing (one recent study): 9%
Molecule: glucosamine NaCl
